The target in this experiment is T1, SARM1 (Homo sapiens, UniProt Q6SZW1).
T1 construct: AviTag […]; made in house; host or cells: NRK1-HEK293T cells, transiently transfected; the clarified sonicated lysate was used without purification
T1 sequence (Q6SZW1 with tags, fused parts or gaps): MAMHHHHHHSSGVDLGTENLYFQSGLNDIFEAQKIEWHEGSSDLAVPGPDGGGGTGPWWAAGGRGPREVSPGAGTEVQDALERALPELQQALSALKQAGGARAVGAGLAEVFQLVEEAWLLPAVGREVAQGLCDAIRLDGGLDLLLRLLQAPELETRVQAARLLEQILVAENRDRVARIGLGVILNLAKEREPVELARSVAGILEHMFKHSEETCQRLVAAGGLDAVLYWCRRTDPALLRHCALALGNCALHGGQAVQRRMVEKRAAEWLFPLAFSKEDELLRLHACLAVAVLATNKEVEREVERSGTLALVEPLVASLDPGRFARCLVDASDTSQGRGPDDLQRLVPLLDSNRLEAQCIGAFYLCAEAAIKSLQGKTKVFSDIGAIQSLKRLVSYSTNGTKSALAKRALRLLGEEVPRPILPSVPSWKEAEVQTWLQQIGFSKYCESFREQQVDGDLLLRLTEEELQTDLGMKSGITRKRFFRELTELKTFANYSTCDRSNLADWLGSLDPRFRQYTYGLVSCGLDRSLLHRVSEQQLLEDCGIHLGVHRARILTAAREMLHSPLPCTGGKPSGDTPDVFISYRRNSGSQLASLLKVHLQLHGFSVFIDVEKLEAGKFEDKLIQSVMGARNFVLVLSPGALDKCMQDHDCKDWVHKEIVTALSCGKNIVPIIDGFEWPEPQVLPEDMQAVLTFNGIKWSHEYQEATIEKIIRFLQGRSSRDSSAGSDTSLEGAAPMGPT
Description: ARM-SAM-TIR SARM1 IC50 assay (NADase activity, NAD+ cleavage). Format: biochemical. From the text: This Example describes an assay of ARM-SAM-TTR NADase activity and use of this assay to measure the efficacy of compounds of Formula I or Formula II to block SARM1 mediated NAD+ cleavage. This assay is optimized in such a way as to characterize the efficacy of the compounds in Formula I or Formula II to inhibit SARM1 activity and to calculate an IC50 value for each compound. This assay makes use of full length SARI, which encompasses the ARM, SAM and TTR domains.
Preparation of ARM-SAM-TIR Lysate (STL)
NRK1-HEK293T cells were seeded onto 150 cm^2 plates at 20×10^6 cells per plate. The next day, the cells were transfected with 15 μg ARM-SAM-TIR expression plasmid, SEQ ID NO: 1.
The cultures were supplemented with 1 mM NR at time of transfection to minimize toxicity from ARM-SAM-TIR overexpression. Forty-eight hours after transfection, cells were harvested, pelleted by centrifugation at 1,000 rpm (Sorvall ST 16R centrifuge, Thermo Fisher), and washed once with cold PBS (0.01 M phosphate buffered saline NaCl 0.138 M; KCl 0.0027 M; pH 7.4). The cells were resuspended in PBS with protease inhibitors (cOmplete™ protease inhibitor cocktail, Roche product #11873580001) and cell lysates were prepared by sonication (Branson Sonifer 450, output=3, 20 episodes of stroke). The lysates were centrifuged (12,000×g for 10 min at 4° C.) to remove cell debris and the supernatants (containing ARM-SAM-TIR protein) were stored at −80° C. for later use in the in vitro ARM-SAM-TIR NADase assay (see below). Protein concentration was determined by the Bicinchoninic (BCA) method and used to normalize lysate concentrations.
ARM-SAM-TIR IC50 Assay of Formula I or Formula II Compounds.
The enzymatic assay was performed in a 384-well polypropylene plate in Dulbecco's PBS buffer in a final assay volume of 20 μL. ARM-SAM-TIR lysate with a final concentration of 5 μg/mL was pre-incubated with the respective compound at 1% DMSO final assay concentration over 2 h at room temperature. The reaction was initiated by addition of 5 μM final assay concentration of NAD+ as substrate. After a 2 hr room temperature incubation, the reaction was terminated with 40 μL of stop solution of 7.5% trichloroactetic acid in acetonitrile. The NAD+ and ADPR concentrations were analyzed by a RapidFire High Throughput Mass Spectrometry System (Agilent Technologies, Santa Clara, CA) using an API4000 triple quadrupole mass spectrometer (AB Sciex Framingham, MA).

Where [1] appears, read: ARM-SAM-TIR lysate 5 μg/mL from NRK1-HEK293T cells, 2 h pre-incubation with compound, 5 μM NAD+, 2 hr room temperature, NAD+ and ADPR by RapidFire mass spectrometry, read-out: SARM1 IC50.

Like-named read-outs stand apart in the source and are kept apart here.

Take `N#Cc1cc(N2CCC[C@H](C(=O)N3CCOCC3)C2)nc2ccc(Br)cc12` [Example 101]: the IC50 under setting [1] is less than 5 µM.
As for `C[C@@H]1CCC[C@H](C)N1c1cc(C#N)c2cc(Br)ccc2n1` [Example 96], under setting [1], the IC50 is less than 5 µM.
`CC(O)c1ccc2nc(N3[C@H](C)CCC[C@@H]3C)cc(C#N)c2c1` (some centres unmarked) [Example 147]: the IC50 under setting [1] was less than 5 µM.
The same measure, in the same setting: under `N#Cc1cc(N2CCCCC2)nc2ccc(F)cc12` [Example 24] stands less than 5 µM; under `C[C@@H]1CCC[C@H](C)N1c1cc(C#N)c2cc(C(C)(C)O)ccc2n1` [Example 148], less than 5 µM.
The same measure, in the same setting: the result for `CNC(=O)C(CO)Nc1cc(C#N)c2cc(Cl)ccc2n1` (centres unmarked) [Example 39] reads greater than 30 µM; that for `CO[C@H]1CCN(c2cc(C#N)c3cc(Cl)ccc3n2)C1` [Example 49], less than 5 µM.
On the same count and under the same terms, the result for `N#Cc1cc(N2CC[C@@H](N)C2)nc2ccc(Cl)cc12` [Example 65] reads less than 5 µM; that for `N#Cc1cc(N2CCCC23CCOC3)nc2ccc(Br)cc12` (centres unmarked) [Example 145], less than 5 µM.
Take `N#Cc1cc(N2CCC[C@H](C(=O)N3CCCC3)C2)nc2ccc(Br)cc12` [Example 100]: under setting [1], the IC50 is less than 5 µM.
Same read-out and setting: the result for `N#Cc1cc(NCC2CC2)nc2ccc(Cl)cc12` [Example 13] reads less than 5 µM; that for `N#Cc1cc(N2CCCCC2)nc2ccc(Cl)cc12` [Example 4], less than 5 µM; that for `N#Cc1cc(N2CCC[C@H](NC(=O)C3CC3)C2)nc2ccc(Br)cc12` [Example 106], less than 5 µM.
Same read-out and setting: under `N#Cc1cc(N2CCC(C(=O)N3CCOCC3)CC2)nc2ccc(Br)cc12` [Example 104] stands less than 5 µM.
For `COc1cc(C#N)c2cc(Cl)ccc2n1` [Example 14], the half-inhibitory concentration (IC50) under setting [1] is less than 5 µM.
The same measure, in the same setting: the result for `N#Cc1cc(N2CC[C@H](O)C2)nc2ccc(Cl)cc12` [Example 12] reads less than 5 µM; that for `CC1(O)CCCN(c2cc(C#N)c3cc(Br)ccc3n2)C1` (centres unmarked) [Example 97], less than 5 µM; that for `N#Cc1cc(N2CCC(NCCO)CC2)nc2ccc(Cl)cc12` [Example 1], 5 to 15 µM.
Same read-out and setting: the result for `N#Cc1cc(NC2CCCN(C(N)=O)C2)nc2ccc(Cl)cc12` (centres unmarked) [Example 37] reads less than 5 µM.
Same read-out and setting: under `N#Cc1cc(N2CCC(N)CC2)nc2cc(Cl)ccc12` [Example 64] stands less than 5 µM; under `CN(CC1CC1)C(=O)[C@H]1CCCN(c2cc(C#N)c3cc(Br)ccc3n2)C1` [Example 115], less than 5 µM; under `CC1(NS(C)(=O)=O)CCN(c2cc(C#N)c3cc(Br)ccc3n2)CC1` [Example 118], less than 5 µM.
Turning to `N#Cc1cc(N2CCOCC2)nc2ccc(Cl)cc12` [Example 76], the half-inhibitory concentration (IC50) under setting [1] was less than 5 µM.
Take `Cc1cncnc1C(=O)N[C@H]1CCCN(c2cc(C#N)c3cc(Br)ccc3n2)C1` [Example 135]: under setting [1], the IC50 was less than 5 µM.
As to `N#Cc1cc(N2CCC[C@H](NC(=O)c3cncnc3)C2)nc2ccc(Br)cc12` [Example 139], the IC50 under setting [1] is less than 5 µM.
Take `CN(Cc1ccccc1)C(=O)[C@H]1CCCN(c2cc(C#N)c3cc(Br)ccc3n2)C1` [Example 116]: under setting [1], the half-inhibitory concentration (IC50) is less than 5 µM.
Still for that read-out and setting: the result for `N#Cc1cc(N2CCCC(c3ncccn3)C2)nc2ccc(Br)cc12` (centres unmarked) [Example 152] reads less than 5 µM; that for `N#Cc1cc(N2CCC[C@H](C(N)=O)C2)nc2ccc(Cl)cc12` [Example 78], less than 5 µM.
In the case of `N#Cc1cc(N2CCC[C@H](N)C2)nc2ccc(Cl)cc12` [Example 58], the IC50 under setting [1] is less than 5 µM.
The same measure, in the same setting: the result for `N#Cc1cc(N2CC[C@@H](C(=O)N3CCCC3)C2)nc2ccc(Br)cc12` [Example 143] reads less than 5 µM; that for `COCCNC(=O)[C@H]1CCCN(c2cc(C#N)c3cc(Br)ccc3n2)C1` [Example 102], less than 5 µM; that for `N#Cc1cc(N2CCCC(CCC(N)=O)C2)nc2ccc(Cl)cc12` (centres unmarked) [Example 40], less than 5 µM.
For the compound `N#Cc1cc(N2CCC[C@H](NC(=O)N3CCOCC3)C2)nc2ccc(Br)cc12` [Example 137], under setting [1], the 50% inhibitory concentration (IC50) is less than 5 µM.
Still for that read-out and setting: the result for `C[C@@]1(NS(C)(=O)=O)CCCN(c2cc(C#N)c3cc(Br)ccc3n2)C1` [Example 122] reads less than 5 µM; that for `N#Cc1cc(-c2cccnc2)nc2ccc(Cl)cc12` [Example 87], 15 to 30 µM.
In turn, `N#Cc1cc(N2CC3CCC2CN3)nc2ccc(Cl)cc12` (centres unmarked) [Example 74] registered an IC50 of less than 5 µM.
As for `N#Cc1cc(N2CCC[C@H](NCc3ccccc3)C2)nc2ccc(Br)cc12` [Example 107], the IC50 under setting [1] was less than 5 µM.
Take `Cc1cnc(CNc2cc(C#N)c3cc(Cl)ccc3n2)o1` [Example 28]: the IC50 under setting [1] is greater than 30 µM.
On the same count and under the same terms, the result for `CN(CC1CC1)C(=O)C1CCN(c2cc(C#N)c3cc(Br)ccc3n2)CC1` [Example 124] reads less than 5 µM.
For `CC(C)(C)OC(=O)N1C2CC1CN(c1cc(C#N)c3cc(Cl)ccc3n1)C2` [Example 91], the IC50 is less than 5 µM.
As for `CC(=O)N1CCN(c2cc(C#N)c3cc(Cl)ccc3n2)CC1` [Example 35], under setting [1], the IC50 was less than 5 µM.
Take `CC(=O)N[C@@]1(C)CCCN(c2cc(C#N)c3cc(Br)ccc3n2)C1` [Example 119]: the IC50 under setting [1] was less than 5 µM.
Still for that read-out and setting: under `N#Cc1cc(N2CCCC2)nc2ccc(Cl)cc12` [Example 10] stands less than 5 µM; under `CCN1CCN(c2cc(C#N)c3cc(Cl)ccc3n2)CC1` [Example 53], greater than 30 µM; under `CNc1cc(C#N)c2cc(Cl)ccc2n1` [Example 50], less than 5 µM.
Still for that read-out and setting: the result for `N#Cc1cc(N2CCC[C@@H](C(=O)NCc3cnccn3)C2)nc2ccc(Br)cc12` [Example 141] reads less than 5 µM; that for `C[C@@H]1CCCCN1c1cc(C#N)c2cc(Cl)ccc2n1` [Example 82], less than 5 µM; that for `CNC(=O)[C@H]1CCCN(c2cc(C#N)c3cc(Cl)ccc3n2)C1` [Example 79], less than 5 µM.
For `N#Cc1cc(N2C3CNCC2C3)nc2ccc(Cl)cc12` [Example 72], the IC50 was less than 5 µM.
For `N#Cc1cc(N2CCCCC2)nc2ccc(Br)cc12` [Example 21], the IC50 under setting [1] is less than 5 µM.
For the compound `N#Cc1cc(N2CCNCC2)nc2ccc(Cl)cc12` [Example 16], the IC50 was greater than 30 µM.
Consider `CS(=O)(=O)C1CCN(c2cc(C#N)c3cc(Cl)ccc3n2)CC1` [Example 55], for which, under setting [1], the IC50 is 5 to 15 µM.
The same measure, in the same setting: under `Cn1c(CNc2cc(C#N)c3cc(Cl)ccc3n2)nc2cccnc21` [Example 32] stands greater than 30 µM; under `COCCN(C)C(=O)C1CCN(c2cc(C#N)c3cc(Br)ccc3n2)CC1` [Example 123], less than 5 µM; under `C[C@@H]1CCC[C@H](C)N1c1cc(C#N)c2ccccc2n1` [Example 144], less than 5 µM.
For `CO[C@@H]1CCN(c2cc(C#N)c3cc(Cl)ccc3n2)C1` [Example 48], the IC50 under setting [1] was less than 5 µM.

As a reminder, the IC50 is the concentration that gives 50% inhibition.

Source of the values: patent US12441719B2, “Inhibitors of SARM1” (Disarm Therapeutics, Inc., priority 2019, dated 2025).
